Test results taken from the supplement of paper PMC10307832.

Assays:
Experiment in all cases: relative viability (nuclei count vs DMSO), 5 days (fraction); higher = more cells survive
[1] = compound: CC1=NN=C(O1)C2=NN=C(C=C2)N3CCC(CC3)OC4=C(C=CC(=C4)F)Cl + N=C(N)NC(=N)NCCc1ccccc1 [Phenformin] (partner 250 µM)
How it was run: (§1)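 Medians of duplicate plates are given as relative viability. That measure is the nuclei count in treated wells divided by the count in vehicle wells. Counts were taken on 4× images of lung cancer cell lines in 1536-well plates, 5 days after pin-tool dosing the day after seeding with one drug alone or a fixed anchor-drug dose plus five library-drug doses (not always all listed) in √10 steps.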

[2] = compound: CC1=NN=C(O1)C2=NN=C(C=C2)N3CCC(CC3)OC4=C(C=CC(=C4)F)Cl + Cc1nc(NC(=O)N2CCC[C@H]2C(N)=O)sc1-c1ccnc(C(C)(C)C(F)(F)F)c1 [Alpelisib] (partner 2 µM)
How it was run: as §1

[3] = compound: CC1=NN=C(O1)C2=NN=C(C=C2)N3CCC(CC3)OC4=C(C=CC(=C4)F)Cl + CC(=O)c1c(C)c2cnc(Nc3ccc(N4CCNCC4)cn3)nc2n(C2CCCC2)c1=O [Palbociclib] (partner 0.5 µM)
How it was run: as §1

[4] = compound: CC1=NN=C(O1)C2=NN=C(C=C2)N3CCC(CC3)OC4=C(C=CC(=C4)F)Cl + Cc1cc(Nc2cc(N3CCN(C)CC3)nc(Sc3ccc(NC(=O)C4CC4)cc3)n2)n[nH]1 [Tozasertib] (partner 0.1 µM)
How it was run: as §1

Row | Cell Line | relative viability ([1]; first compound 0.8 µM) | relative viability ([1]; first compound 2.53 µM) | relative viability ([1]; first compound 8 µM) | relative viability ([2]; first compound 0.253 µM) | relative viability ([2]; first compound 0.8 µM) | relative viability ([2]; first compound 2.53 µM) | relative viability ([2]; first compound 8 µM) | relative viability ([3]; first compound 0.253 µM) | relative viability ([3]; first compound 0.8 µM) | relative viability ([3]; first compound 2.53 µM) | relative viability ([3]; first compound 8 µM) | relative viability ([4]; first compound 0.8 µM) | relative viability ([4]; first compound 2.53 µM) | relative viability ([4]; first compound 8 µM) | relative viability ([1]; first compound 0.253 µM) | relative viability ([4]; first compound 0.253 µM)
1 | NCI-H2347 | 0.382 | 0.493 | 0.359 | 0.788 | 0.758 | 0.801 | 0.682 | 0.459 | 0.43 | 0.411 | 0.386 | 0.447 | 0.579 | 0.497 | – | –
2 | NCI-H2405 | 0.383 | 0.37 | 0.328 | 0.745 | 0.778 | 0.691 | 0.828 | 0.319 | 0.349 | 0.332 | 0.346 | 0.325 | 0.395 | 0.424 | 0.406 | 0.415
3 | NCI-H3122 | 0.282 | 0.253 | 0.275 | 0.632 | 0.642 | 0.702 | 0.618 | 0.191 | 0.201 | 0.183 | 0.221 | 0.137 | 0.144 | 0.155 | 0.324 | 0.151
4 | PC-3 [JPC-3] | 0.406 | 0.426 | 0.412 | 0.915 | 0.866 | 0.914 | 0.901 | 0.507 | 0.538 | 0.537 | 0.551 | 0.813 | 0.797 | 0.67 | 0.433 | 0.774
5 | PC-14 | – | 0.463 | 0.567 | 0.849 | 0.827 | 0.885 | 0.857 | 0.503 | 0.444 | 0.449 | 0.44 | – | 0.433 | 0.557 | 0.656 | 0.523
6 | RERF-LC-KJ | 0.434 | 0.466 | 0.392 | 0.765 | 0.695 | 0.839 | 0.781 | 0.617 | 0.667 | 0.633 | 0.688 | 0.351 | 0.367 | 0.322 | 0.389 | 0.341
7 | SK-LU-1 | – | 0.534 | 0.475 | 0.754 | 0.812 | 0.938 | 0.737 | 0.428 | 0.334 | 0.33 | 0.47 | – | 0.275 | 0.25 | 0.584 | 0.325
8 | SK-MES-1 | 0.532 | 0.475 | 0.414 | 0.786 | 0.953 | 0.859 | 0.871 | 0.28 | 0.355 | 0.341 | 0.352 | 0.641 | 0.551 | 0.521 | 0.58 | 0.633
9 | SW 1573 | 0.329 | 0.351 | 0.363 | 0.753 | 0.722 | 0.701 | 0.791 | 0.314 | 0.372 | 0.255 | 0.262 | 0.13 | 0.181 | 0.246 | 0.371 | 0.131
10 | UMC-11 | 0.291 | 0.263 | 0.263 | 0.744 | 0.679 | 0.687 | 0.667 | 0.303 | 0.271 | 0.3 | 0.39 | 0.184 | 0.192 | 0.169 | 0.288 | 0.181
